The results in this text go back to the METLIN SMRT retention time set (Domingo-Almenara et al. 2019).

The data set can be described thus: gradient 5% acetonitrile 3 min, to 50% in 2 min, to 85% in 15 min, held 3 min, 100 µL/min. Particulars: column: Zorbax Extend-C18 2.1 x 50 mm; eluents: water / acetonitrile, 0.1% formic acid. The method in brief: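 Using water and acetonitrile that each contained 0.1% formic acid, mixtures of ~100 pure standards were separated at 100 μL/min on a Zorbax Extend-C18 column (2.1 × 50 mm, 1.8 μm). The HPLC fed a quadrupole time-of-flight mass spectrometer working in positive and negative ionization mode, with dead and dwell volumes of 40 μL and 900 μL. Data were acquired over 3 months. Retention time was read from computationally picked adduct peaks after manual inspection of each.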
For the compound `Cc1ccc(-c2nnc(Cc3nc(-c4cccc(Cl)c4)no3)o2)cc1C`, the RP-LC retention time came to 1230 s. Consider `CCOc1ccc(Oc2cc3c(cc2NC(=O)COc2ccc(C)cc2)n(C)c(=O)c(=O)n3C)cc1`, for which the RP-LC retention time came to 1030 s. `CCCNC(=O)C1CCCN(c2nc3ncn(CC(=O)Nc4ccccc4Cl)c(=O)c3s2)C1` (stereo not given) registered an RP-LC retention time of 738 s. `O=C(NCc1ccc2c(c1)OCO2)C1CCN(c2ccc(SCc3ccccc3)nn2)CC1`: the RP-LC retention time is 742 s.

For the compound `CCc1ccc(C(=O)N2CCCC(COc3ccc(C(=O)NC(C)C)cc3)C2)cc1` (stereo not given), the RP-LC retention time was found to be 944 s.

Take `COC(=O)C1=C(CN2CCN(C)CC2)NC(=O)NC1c1ccccc1Cl` (stereo not given): the RP-LC retention time was found to be 597 s. Under `CCCCC(=O)N1CCC2(C1)C(=O)N(C)c1ccc(OC)cc12` (stereo not given) stands 744 s; under `O=C(CCC1CCCN(S(=O)(=O)c2ccc(F)cc2)C1)NC1CCS(=O)(=O)C1` (stereo not given), 731 s. Under `Cc1ccn2c(NC(=O)C(C)(C)Oc3ccc(Cl)cc3)c(-c3ccc(F)cc3)nc2c1` stands 819 s. Under `Cc1sc(-c2cc(C(F)(F)F)on2)cc1S(=O)(=O)N1CCCCCC1` stands 1270 s. The compound `COc1cccc(-c2nc(-c3ccnc(N4CCOCC4)c3)no2)c1` showed an RP-LC retention time of 944 s. As to `O=C(O)c1cccc(Nc2c(-c3ccccc3)nc3cnccn23)c1`, the RP-LC retention time amounted to 697 s. With `CC(C)Oc1ccccc1CN1CC[C@@H]2CN(S(C)(=O)=O)[C@@H]2C1`, the RP-LC retention time was 638 s. Under `O=C(Nc1ccc(F)cc1)Nc1ccc2nc3n(c(=O)c2c1)CCC3` stands 688 s; under `Cc1c(C2CCN(C(=O)c3cc4ccccc4[nH]3)CC2)noc1N`, 729 s. `C=CCSc1nnc(Cc2cc(=O)[nH]c(=O)[nH]2)n1-c1ccc(Cl)cc1` came in with an RP-LC retention time of 624 s. Compound `CC(C)c1nnc(-c2sccc2NC(=O)C2CCC2)o1` came in with an RP-LC retention time of 1230 s.

On to `Cc1ccc(C)c2sc(OC3CCN(C(=O)c4ccc(=O)n(C)n4)CC3)nc12`, for which the RP-LC retention time was 911 s. The figure for `COc1ccc(NC(=O)C2CCN(c3cncnc3N3CCN(C)CC3)CC2)cc1Cl` is 585 s; for `CSc1nnc(-c2nn(C)c3c2CN(C(=O)c2ccccc2Cl)CC3)n1C` it is 710 s. `COc1ccc2[nH]cc(CCNC(=O)CCC3CCCCC3)c2c1` had an RP-LC retention time of 874 s. With `Cc1ccc(S(=O)(=O)NCc2ccccn2)c(C)c1C`, the RP-LC retention time amounted to 626 s. The figure for `CN1CCC(NC(=O)c2n[nH]c3c2CN(C(=O)c2ccccc2)CC3)CC1` is 568 s. In turn, `COc1ccc2nc([S@](=O)Cc3ncc(C)c(OC)c3C)[nH]c2c1` returned an RP-LC retention time of 664 s. The compound `Cc1ccc2nc(C(=O)NCCN3CCCCC3C)cn2c1` (stereo not given) yielded an RP-LC retention time of 552 s. As to `O=C(Nc1ccccc1C(=O)NCCCN1CCN(C2CCCCC2)CC1)C1=CSCCO1`, the RP-LC retention time is 608 s. Under `CCN(CC)c1cc2c(cc1NC(=O)COc1ccc(Cl)cc1)n(C)c(=O)c(=O)n2C` stands 965 s; under `COc1ccc(-c2cc(N3CCC(NC(=O)c4ccc(OC)cc4OC)C3)n[nH]2)cc1` (stereo not given), 705 s; under `CN(C)C[C@@H]1CN(C2CCOCC2)C[C@H]1NS(=O)(=O)c1ccc(C#N)cc1`, 524 s.

`O=C(CN(c1ccc(F)cc1)S(=O)(=O)c1cccnc1)NCCc1ccccc1` had an RP-LC retention time of 789 s. Under `Cc1csc(C(=O)NCC(O)c2ccc(C(F)(F)F)cc2)c1` (stereo not given) stands 795 s; under `COc1ccc(OCc2nnc3sc(-c4ccccn4)nn23)cc1`, 823 s; under `O=C(CCCNC(=O)c1cc(-c2ccco2)on1)Nc1cccc2cccnc12`, 805 s. The compound `CCc1nn2c(CNS(=O)(=O)c3cccc(Cl)c3)c(-c3ccccc3)nc2s1` registered an RP-LC retention time of 971 s. As to `O=S(=O)(c1ccc2c(c1)CCCC2)N1CCCC1c1nc(-c2cccc(F)c2)no1` (stereo not given), the RP-LC retention time worked out at 1330 s.

As for `Cc1ccccc1C(=O)N1CCC2(C1)C(=O)N(C)c1ccccc12` (stereo not given), the RP-LC retention time was 767 s.

Take `CN(C)CCNCc1ccc(-c2ccc(Br)cc2)o1`: the RP-LC retention time was 598 s. The figure for `CCCN1C(=O)COc2ccc(-c3csc(NC(=O)COC)n3)cc21` is 823 s; for `COc1cc(NC(=O)N2CCC(N3CCN(Cc4ccccc4)C3=O)CC2)cc(OC)c1` it is 804 s; for `COC(=O)c1cn(NC(=O)c2cc(-c3ccco3)nc3ccccc23)c(=O)c2ccccc12` it is 858 s.

`CC(=O)Nc1ccc(CCc2nc3ccc(C(=O)NCCC4=CCCCC4)cc3[nH]2)cc1` showed an RP-LC retention time of 669 s. Under `CCCNC(=O)C1CCCN(c2ncnc3c2nc2n3CCCCC2)C1` (stereo not given) stands 650 s; under `S=C1SCN(CCc2ccccc2)CN1CCc1ccccc1`, 1210 s; under `Cc1ccc(C(=O)N2C[C@@H](F)C[C@H]2C(=O)N2CCc3ccccc3C2)s1`, 800 s.

The compound `O=C(C1=CN(c2ccc3c(c2)OCCO3)c2ccccc2S1(=O)=O)N1CCOCC1` displayed an RP-LC retention time of 730 s. Under `COc1ccccc1N1CCN(c2cc(SCC(=O)Nc3ccccc3F)ncn2)CC1` stands 1100 s; under `CS(=O)(=O)N1CCC(C(=O)Nc2cccc(Br)c2)Oc2ccccc21` (stereo not given), 996 s. As for `COc1ccc(S(=O)(=O)N2CCN(c3cc(C)nc(N4CCCCC4)n3)CC2)cc1Cl`, the RP-LC retention time is 768 s. Regarding `CN(C)c1ccc(C(=O)Nc2cnc(N3CCCCC3)nc2)cc1`, the RP-LC retention time was determined as 882 s.

In turn, `Nc1nc(SCCc2ccccc2)c2[nH]cnc2n1` registered an RP-LC retention time of 675 s.

`Cc1ccc(-c2nc(-c3ccc4c(c3)ncn4CCN3CCCC3)no2)s1` gave an RP-LC retention time of 639 s.

`CCCN(CC1CCOC1)C(=O)Nc1cccc(F)c1C` (stereo not given): the RP-LC retention time was 758 s. Under `O=C(Nc1ccc(F)c(Cl)c1)C1CCCN(c2ncnc3c2nc2n3CCCCC2)C1` (stereo not given) stands 917 s; under `CN(C)c1ccc(N2C=C(C(=O)N3CCCC3)S(=O)(=O)c3ccccc32)cc1`, 811 s; under `O=C1CC(c2nc(-c3ccccc3F)no2)CN1c1ccc2c(c1)OCCO2` (stereo not given), 860 s.

For the compound `CCCNc1cc(N2CCCC(CCC(=O)Nc3ccc4c(c3)OCO4)C2)ncn1` (stereo not given), the RP-LC retention time amounted to 691 s. The figure for `COc1ccc2[nH]cc(CCNC(=O)c3cc(-c4ccccn4)nc4ccccc34)c2c1` is 814 s; for `CCOC(=O)c1c(C)c(CCC(=O)N2CCC(C)CC2)n(C)c1C` it is 950 s. The figure for `O=S(=O)(c1ccccc1Cl)N1CCC(c2noc(COCC3CC3)n2)CC1` is 950 s; for `CCc1nc2nccc(-c3ccc(OC)cc3)n2n1` it is 784 s.
